Test results published in US6984636B2, “Mitochondrially targeted antioxidants” (Medical Research Council, priority 2002, dated 2006).

Legend:
rat liver mitochondria = test: Accumulation of Compound 9 in isolated mitochondria (ion selective electrode); format: in vitro ADME
Method: Liver mitochondria were prepared from female Wistar rats by homogenisation followed by differential centrifugation in medium containing 250 mM sucrose, 10 mM Tris-HCL (pH 7.4) and 1 mM EGTA (Chappell, J. B. and Hansford, R. G., In: Subcellular components: preparation and fractionation (Ed. Birnie G D), pp. 77-91. Butterworths, London, 1972, which is incorporated herein by reference.)
An ion selective electrode for compound 9 was prepared by standard procedures (Kamo, N., et al., Journal of Membrane Biology, 49, 105-121 (1979) and Davey, G. P., et al., Biochemical Journal, 288, 439-443 (1992), which are incorporated herein by reference), and activated by soaking in 100 μM compound 9 for 1-3 days. The electrodes were then inserted into an air-tight chamber of an oxygen electrode enabling simultaneous measurement of oxygen consumption and compound 9, as shown in FIG. 1.
The rat liver mitochondria (2 mg protein/ml) were suspended in KCl medium (120 mM KCl, 10 mM HEPES, pH 7.2, 1 mM EGTA) with additions of rotenone (5 μg/ml) and nigericin (0.6 nM) in a stirred 3 ml system at 30° C. Compound 9 was titrated in 1 μM increments (from 650 to 730s on FIG. 1) and the response of the electrode measured over 0-5 μM of Compound 9. This response was logarithmic with respect to the concentration of Compound 9.
To energise the mitochondria, the respiratory substrate succinate (5 mM) was added (at 800s on FIG. 1). These conditions are known to generate a mitochondrial membrane potential of about 180 mV (Burns, et al., Arch Biochem Biophys, 332,60-68 (1995); Burns and Murphy, Arch Biochem Biophys, 339, 33-39 (1997), which are incorporated herein by reference).

superoxide = test: Standard assay for superoxide dismutase activity (xanthine oxidase/hypoxanthine, acetylated cytochrome c reduction, A550); format: biochemical
Method: To see if Compound 9 is catalytically active as a superoxide dismutase mimetic, a standard assay for superoxide dismutase activity was used (Boveris, A., Methods Enzymol., 105, 429-435 (1984), which is incorporated herein by reference).
The incubation conditions were 50 mM KPi, pH 7.5; 1 mM EGTA; 100 μM DTPA (N,N-bis(2-bis[carboxymethyl]amino)ethyl) glycine) at 30° C. to which was added 0.1 unit/ml xanthine oxidase and acetylated cytochrome c (50 μM). After incubation for 2 min, the background rate was measured for 1 min then hypoxanthine (100 μM) was added to initiate superoxide formation (point X in FIG. 2), which provides a continual flux. The rate of superoxide formation is measured by the rate at which the superoxide reduced cytochrome c(III) to cytochrome c(II), which leads to an increase in light absorption at 550 nm (A550). SOD activity causes the superoxide to be converted to hydrogen peroxide thereby decreasing the rate of reduction of cytochrome c (III). In FIG. 2, the initial rate of reduction of cytochrome c (III) can be seen (line A) and on addition of compound 9 (250 nM) this rate of cytochrome c reduction was decreased due to consumption of the superoxide by compound 9 (line B).
The above experiments were repeated using various concentrations of Compound 9 and the native superoxide dismutase (Cu, Zn SOD) in order to compare their activity.

xanthine oxidase = test: Control experiments for inhibition of xanthine oxidase; format: biochemical
Chain of xanthine oxidase (P47989 whole entry, species assumed): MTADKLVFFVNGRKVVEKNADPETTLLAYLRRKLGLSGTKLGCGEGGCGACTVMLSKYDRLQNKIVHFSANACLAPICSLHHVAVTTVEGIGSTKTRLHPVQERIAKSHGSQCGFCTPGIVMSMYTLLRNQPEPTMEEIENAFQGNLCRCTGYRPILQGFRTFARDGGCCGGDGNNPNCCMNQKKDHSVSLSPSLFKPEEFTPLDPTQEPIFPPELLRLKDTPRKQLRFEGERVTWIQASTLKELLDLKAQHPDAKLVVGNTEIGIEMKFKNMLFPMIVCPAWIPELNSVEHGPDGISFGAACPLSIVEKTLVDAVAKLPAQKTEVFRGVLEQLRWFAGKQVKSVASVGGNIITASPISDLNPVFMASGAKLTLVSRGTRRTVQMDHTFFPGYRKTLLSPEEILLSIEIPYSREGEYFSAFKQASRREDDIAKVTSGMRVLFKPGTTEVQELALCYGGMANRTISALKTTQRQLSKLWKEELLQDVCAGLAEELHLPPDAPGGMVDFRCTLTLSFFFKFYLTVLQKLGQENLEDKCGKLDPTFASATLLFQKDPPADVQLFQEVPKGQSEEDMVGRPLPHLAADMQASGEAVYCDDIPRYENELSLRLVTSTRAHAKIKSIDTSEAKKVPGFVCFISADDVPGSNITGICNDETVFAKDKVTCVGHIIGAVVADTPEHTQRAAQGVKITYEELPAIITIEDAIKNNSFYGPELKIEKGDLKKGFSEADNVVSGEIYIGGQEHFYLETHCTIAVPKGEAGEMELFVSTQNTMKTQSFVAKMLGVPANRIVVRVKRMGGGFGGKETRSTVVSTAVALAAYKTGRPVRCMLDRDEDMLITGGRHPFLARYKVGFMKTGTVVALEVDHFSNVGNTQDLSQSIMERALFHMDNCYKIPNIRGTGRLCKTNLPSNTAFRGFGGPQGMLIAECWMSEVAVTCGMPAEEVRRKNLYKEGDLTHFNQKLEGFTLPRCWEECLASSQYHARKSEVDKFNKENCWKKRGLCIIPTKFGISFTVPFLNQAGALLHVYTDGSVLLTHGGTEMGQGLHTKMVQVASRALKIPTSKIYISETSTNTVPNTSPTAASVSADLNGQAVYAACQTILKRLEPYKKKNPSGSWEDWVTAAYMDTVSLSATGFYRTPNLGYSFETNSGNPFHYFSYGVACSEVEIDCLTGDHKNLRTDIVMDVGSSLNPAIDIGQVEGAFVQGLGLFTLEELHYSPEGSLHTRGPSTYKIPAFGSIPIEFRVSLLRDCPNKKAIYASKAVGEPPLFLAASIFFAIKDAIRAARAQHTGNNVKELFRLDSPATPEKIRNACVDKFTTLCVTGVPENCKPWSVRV

[Cl-].[Cl-].[Cl-].[Mn+2].c1ccc([P+](CCCSc2cc3nc(c2)CNC2CCCCC2NCCNC2CCCCC2NC3)(c2ccccc2)c2ccccc2)cc1 [Compound 9, Manganese(II) dichloro((4R, 9R, 14R, 19R)-24-(3-triphenylphosphoniopropane-1-thio)-3, 10, 13, 20, 26-pentaazatetracyclo[20.3.1.0.^4,9.0^14,19]hexacosa-1 (26),-22(23),24-triene) chloride]
time for reversal of accumulation on addition of the uncoupler FCCP (rat liver mitochondria; FCCP 332 nM added to dissipate the membrane potential): < 10 s
concentration of the compound within mitochondria (rat liver mitochondria; energised (succinate 5 mM) rat liver mitochondria 2 mg protein/ml, KCl medium pH 7.2, 30° C., 0-5 μM compound): about 1.25 nmol/mg protein
accumulation by energised mitochondria (rat liver mitochondria; energised rat liver mitochondria, membrane potential about 180 mV): ~500 fold
concentration of compound outside the mitochondria after energising with succinate (rat liver mitochondria; succinate 5 mM added, FIG. 1): falls rapidly
rate of cytochrome c reduction (superoxide; compound 9 at 250 nM, FIG. 2 line B versus control line A): decreased
SOD activity of 1 nmol compound expressed as activity of the native enzyme CuZnSOD (superoxide; per 1 nmol Compound 9, various concentrations, FIG. 3): about 1 unit
inhibition of the activity of xanthine oxidase (xanthine oxidase): does not inhibit
